For assay [1], the system named is R6/2 brain slices. The assay is described as follows: Striatal degeneration: DARPP-32 intensity and neurofilament levels in R6/2 slice cultures. In kind it is cell-based, mouse. The note with it: single low-concentrations (everolimus 250 nM; RTB101 50 nM), DIV21. How it is done:
(§1) Slice cultures were established according to described procedures. (L. Stoppini et al., J. Neurosci. Methods 37(2): 173-82 (1991) and N. Gogolla et al., Nat. Protoc. 1(3): 1165-71 (2006)). A particular cutting angle was utilized to produce brain slices with a preserved cortico-striatal pathway. Finally, slices were selected, placed on Millicel (Millipore, PICM03050) and cultured in 6-well dishes at 35° C. and 5% CO2 in the presence of 1 ml of culture medium.
(§2) Slices were treated with different mTOR inhibitors from DIV14 to DIV21. The culture medium was exchanged every second day, and drugs were added in the fresh culture medium. We used this protocol to evaluate the action of the following mTOR inhibitors: RTB101 (50 and 300 nM in DMSO), everolimus (250 nM in DMSO), CCG168 (300 nM in DMSO), and everolimus+RTB101 (250 and 10, 250and 30 and 250 and 50 nM in DMSO). […]
(§3) High resolution images were acquired on an upright Zeiss LSM700 confocal microscope, using a Plan-Neofluar 40x/1.3 oil immersion objective. For the quantification of the PolyQ density and DARPP-32/NeuF signal intensity, at least three confocal 3D stacks/slice were acquired in striatum for each experiment (five slices per condition), and analyzed using Imaris 4.2 (BitplaneAG) and Image J softwares. All data are expressed as mean±SEM. […]

Assay [2] deals with R6/2 brain slices. The assay is described as follows: polyQ density (immunohistochemical detection of PolyQ inclusions) in R6/2 corticostriatal slice cultures. The class given is cell-based, mouse. The note with it: DIV14 to DIV21, read at DIV21, vs DMSO treated R6/2 slices. How it is done:
as §1, §2, §3

Turning to `CO[C@H]1C[C@@H]2CC[C@@H](C)[C@@](O)(O2)C(=O)C(=O)N2CCCC[C@H]2C(=O)O[C@H]([C@H](C)C[C@@H]2CC[C@@H](OCCO)[C@H](OC)C2)CC(=O)[C@H](C)/C=C(\C)[C@@H](O)[C@@H](OC)C(=O)[C@H](C)C[C@H](C)/C=C/C=C/C=C/1C` [everolimus, (1R,9S,12S,15R,16E,18R,19R,21R,23S,24E,26E,28E,30S,32S,35R)-1,18-dihydroxy-12-{(1R)-2-[(1S,3R,4R)-4-(2-hydroxyethoxy)-3-methoxycyclohexyl]-1-methylethyl}-19,30-dimethoxy-15,17,21,23,29,35-hexamethyl-11,36-dioxa-4-aza-tricyclo[30.3.1.04,9]hexatriaconta-16,24,26,28-tetraene-2,3,10,14,20-pentaone], in the assay on R6/2 brain slices [1], the DARPP-32 level entry is recorded as “ineffective” and the neurofilament level result is “ineffective”. Moreover, the polyQ density result in the assay on R6/2 brain slices [2] (250 nM everolimus single treatment) is “no effect”.

In the case of `Cn1c(=O)n(-c2ccc(C(C)(C)C#N)cc2)c2c3cc(-c4cnc5ccccc5c4)ccc3ncc21` [RTB101, 2-methyl-2-[4-(3-methyl-2-oxo-8-quinolin-3-yl-2,3-dihydro-imidazo[4,5-c]quinolin-1-yl)-phenyl]-propionitrile], in the assay with R6/2 brain slices [2] (50 nM RTB101 single treatment), the polyQ density entry is reported as “no effect”.

Source of the values: patent US10596165B2, “Combination therapies” (resTORbio, Inc., priority 2018, dated 2020).
